Measurements from US20240246946A1, “MODULATORS OF TREX1” (Constellation Pharmaceuticals, Inc., priority 2021, published 2024).

How the values were obtained:
[1] = molecular target: T1, hTREX1 (Homo sapiens, UniProt Q9NSU2); assay: hTREX1 HCT116 Cell Assay (HCT116 dual cells, Lucia luciferase reporter of Type I interferon induction); assay type: cell-based; conditions: TREX1i 4 h before pBR322/BstNI transfection, read after 48 h
T1 construct: host or cells: HCT116 dual cells
T1 sequence (Q9NSU2 1-314): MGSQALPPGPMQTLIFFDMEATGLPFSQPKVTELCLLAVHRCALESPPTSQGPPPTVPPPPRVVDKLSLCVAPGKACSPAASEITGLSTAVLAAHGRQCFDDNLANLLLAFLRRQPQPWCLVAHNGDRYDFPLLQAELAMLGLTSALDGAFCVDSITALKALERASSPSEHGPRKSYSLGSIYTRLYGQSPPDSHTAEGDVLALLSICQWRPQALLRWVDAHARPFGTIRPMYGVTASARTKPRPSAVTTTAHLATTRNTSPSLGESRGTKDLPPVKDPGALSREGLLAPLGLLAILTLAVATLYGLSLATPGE
Procedure, shortened: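 HCT116 dual cells carrying an ISRE-type STAT1/STAT2-driven secreted Lucia luciferase reporter were pretreated with TREX1 inhibitor for 4 h (≤0.1% DMSO), then transfected with pBR322/BstNI DNA (100 ng/well, Lipofectamine LTX). Luciferase in medium read after 48 h at 37 °C.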

[2] = molecular target: T2, full length human TREX1 (Homo sapiens, UniProt Q9NSU2); assay: hTREX1 Biochemical Assay (fluorescence, dsDNA substrate degradation); conditions: biochemical, read-out: hTREX1 IC50
T2 construct: N-terminally His-Tev tagged full length human TREX1; made in house; host or cells: E. coli
T2 sequence (Q9NSU2 1-314): T1 sequence (Q9NSU2 1-314)
Procedure, shortened: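 Cleavage of 60 nM TEX615/quencher-labelled dsDNA in pH 7.4 Tris buffer with 5 mM MgCl2, 1.0% DMSO, run 18 hours at 25° C, EDTA-quenched; fluorescence read-out.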

[3] = molecular target: T3, human TREX2 (residues M44-A279) (Homo sapiens, UniProt Q9BQ50); assay: hTREX2 Biochemical Assay (fluorescence, dsDNA substrate degradation); conditions: biochemical selectivity for hTREX1 vs hTREX2
T3 construct: human TREX2 (residues M44-A279, expressed in E. coli); made in house; host or cells: E. coli
T3 sequence (Q9BQ50 44-279 isoform Q9BQ50-1): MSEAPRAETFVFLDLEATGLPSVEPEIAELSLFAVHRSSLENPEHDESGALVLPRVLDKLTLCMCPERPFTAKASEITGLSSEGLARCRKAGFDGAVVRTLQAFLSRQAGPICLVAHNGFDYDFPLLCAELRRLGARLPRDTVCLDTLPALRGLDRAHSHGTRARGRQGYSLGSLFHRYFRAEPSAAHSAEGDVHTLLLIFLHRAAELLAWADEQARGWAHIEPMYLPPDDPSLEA
Procedure, shortened: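 N-His-Tev E. coli enzyme (50 pM) pre-incubated with compound 4 h at 25 °C, then 60 nM TEX615/quencher dsDNA added; 18 h at 25 °C, pH 7.4 Tris buffer with 5 mM MgCl2, 1.0% DMSO. EDTA-quenched; fluorescence 570 ex/615 em from liberated fluorophore, 10-point dose-response.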

[4] = molecular target: T4, full length mouse TREX1 (Mus musculus, UniProt Q91XB0); assay: mTREX1 Biochemical Assay (fluorescence, dsDNA substrate degradation); conditions: biochemical, read-out: mTREX1 IC50
T4 construct: N-terminally His-Tev tagged full length mouse TREX1; made in house; host or cells: E. coli
T4 sequence (Q91XB0 1-314): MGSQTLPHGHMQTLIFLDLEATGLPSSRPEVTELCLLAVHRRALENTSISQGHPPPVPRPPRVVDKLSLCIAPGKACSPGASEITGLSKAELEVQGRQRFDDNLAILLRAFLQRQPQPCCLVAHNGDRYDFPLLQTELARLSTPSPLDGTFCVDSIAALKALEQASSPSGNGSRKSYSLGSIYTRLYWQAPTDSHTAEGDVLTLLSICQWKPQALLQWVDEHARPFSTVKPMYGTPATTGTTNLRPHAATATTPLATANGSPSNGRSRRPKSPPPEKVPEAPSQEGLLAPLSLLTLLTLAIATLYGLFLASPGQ
Procedure, shortened: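 Reaction run 18 h at 25° C. with 60 nM TEX615/quencher-labelled dsDNA and 6 pM mouse TREX1 in Tris buffer (pH 7.4, 5 mM MgCl2, 1.0% DMSO), enzyme having sat 4 h with compound across 10 concentrations. EDTA quench; substrate degradation measured as fluorescence increase.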

IC50 [1] [nM]	IC50 [2] [nM]	hTREX1 vs hTREX2 selectivity [3]	IC50 [4] [nM]	SMILES
> 100	> 10	A (A = <25 fold selective for hTREX1)	> 10	Cc1cnc(C)c(C(c2cc(F)ccc2C#N)C(C)c2nc(C(=O)Nc3cnoc3)c(O)c(=O)n2C)n1 (single isomer, unassigned) [Example 119 D2E2]
> 100	1 to 10	A (A = <25 fold selective for hTREX1)	> 10	Cc1cnc(C(c2cc(F)ccc2Cl)C(C)c2nc(C(=O)Nc3cnoc3)c(O)c(=O)n2C)cn1 (single isomer, unassigned) [Example 117 D2E1]
10 to 100	< 1	C (C = >50 fold selective for hTREX1)	1 to 10	Cc1cc(C(c2cc(F)ccc2C#N)C(C)c2nc(C(=O)Nc3cnoc3)c(O)c(=O)n2C)nn1C (single isomer, unassigned) [Example 112 D1E1]
> 100	< 1	C (C = >50 fold selective for hTREX1)	1 to 10	COCCn1nc(C)c(C(c2cc(F)ccc2C#N)C(C)c2nc(C(=O)Nc3cnoc3)c(O)c(=O)n2C)c1C (single isomer, unassigned) [Example 110 D1E1]
> 100	1 to 10	A (A = <25 fold selective for hTREX1)	> 10	COCCn1cc(C(c2cc(F)ccc2C#N)C(C)c2nc(C(=O)Nc3cnoc3)c(O)c(=O)n2C)c(C)n1 (single isomer, unassigned) [Example 103 D2E1]
> 100	1 to 10	A (A = <25 fold selective for hTREX1)	> 10	COCCn1ncc(C(c2cc(F)ccc2Cl)C(C)c2nc(C(=O)Nc3cnoc3)c(O)c(=O)n2C)c1C (single isomer, unassigned) [Example 108 D1E1]

The next lines start with the molecule.

SMILES	IC50 [1] [nM]	IC50 [2] [nM]	hTREX1 vs hTREX2 selectivity [3]	IC50 [4] [nM]
CCn1cc(C(c2ccccc2C#N)C(C)c2nc(C(=O)Nc3cnoc3)c(O)c(=O)n2C)cn1 (single isomer, unassigned) [Example 13 D2E1]	> 100	1 to 10	B (B = 25 to 50-fold selective for hTREX1)	> 10
CC(c1nc(C(=O)Nc2cnoc2)c(O)c(=O)n1C)C(c1ccccc1C#N)c1c[nH]nc1F (single isomer, unassigned) [Example 127 D1E1]	< 10	< 1	B (B = 25 to 50-fold selective for hTREX1)	< 1
COCCn1cc(C(c2cc(F)ccc2Cl)C(C)c2nc(C(=O)Nc3cnoc3)c(O)c(=O)n2C)cn1 (single isomer, unassigned) [Example 97 D1E1]	> 100	1 to 10	C (C = >50 fold selective for hTREX1)	1 to 10
Cc1nn(C)c(C)c1C(c1cc(F)ccc1Cl)C(C)c1nc(C(=O)Nc2cnoc2)c(O)c(=O)n1C (single isomer, unassigned) [Example 154 D1E1]	> 100	< 1	B (B = 25 to 50-fold selective for hTREX1)	1 to 10
CC(c1nc(C(=O)Nc2cnoc2)c(O)c(=O)n1C)C(c1ccccc1Cl)c1cnn(C)c1C#N (single isomer, unassigned) [Example 96 D1E1]	> 100	< 1	A (A = <25 fold selective for hTREX1)	1 to 10
CC(c1nc(C(=O)Nc2cnoc2)c(O)c(=O)n1C)C(c1ccccc1Cl)n1cc2ccccc2n1 (single isomer, unassigned) [Example 141 D1E1]	> 100	1 to 10	A (A = <25 fold selective for hTREX1)	1 to 10
CCn1cc(C(c2ccccc2Cl)C(C)c2nc(C(=O)Nc3cnoc3)c(O)c(=O)n2C)cn1 (single isomer, unassigned) [Example 85 D2E1]	> 100	> 10	A (A = <25 fold selective for hTREX1)	> 10
Cc1nn(C)cc1C(c1ccccc1C#N)C(c1nc(C(=O)Nc2cnoc2)c(O)c(=O)n1C)C(F)(F)F (single isomer, unassigned) [Example 41 D1E2]	< 10	< 1	C (C = >50 fold selective for hTREX1)	1 to 10
CC(c1nc(C(=O)Nc2cnoc2)c(O)c(=O)n1C)C(c1ccccc1C#N)c1ccnn1C (single isomer, unassigned) [Example 1 D1E1]	10 to 100	1 to 10	A (A = <25 fold selective for hTREX1)	1 to 10
COCCCn1cc(C(c2ccccc2C#N)C(C)c2nc(C(=O)Nc3cnoc3)c(O)c(=O)n2C)cn1 (single isomer, unassigned) [Example 24 D1E1]	< 10	< 1	C (C = >50 fold selective for hTREX1)	< 1
CC(c1nc(C(=O)Nc2cnoc2)c(O)c(=O)n1C)C(c1cnn(CC(F)F)c1)c1cc(F)ccc1C#N (single isomer, unassigned) [Example 102 D1E2]	10 to 100	< 1	B (B = 25 to 50-fold selective for hTREX1)	1 to 10
CC(c1nc(C(=O)Nc2cnoc2)c(O)c(=O)n1C)C(c1cnn(CC(C)(C)O)c1)c1ccccc1Cl (single isomer, unassigned) [Example 86 D1E1]	> 100	< 1	B (B = 25 to 50-fold selective for hTREX1)	1 to 10
Cc1cnc(C(c2ccccc2C#N)C(C)c2nc(C(=O)Nc3cnoc3)c(O)c(=O)n2C)c(C)n1 (single isomer, unassigned) [Example 123 D1E1]	> 100	1 to 10	C (C = >50 fold selective for hTREX1)	1 to 10
CC(c1nc(C(=O)Nc2cnoc2)c(O)c(=O)n1C)C(c1ccccc1C#N)c1c[nH]nc1F (single isomer, unassigned) [Example 127 D1E2]	> 100	1 to 10	B (B = 25 to 50-fold selective for hTREX1)	> 10
CC(C)c1cnn(C(c2ccccc2Cl)C(C)c2nc(C(=O)Nc3cnoc3)c(O)c(=O)n2C)c1 (single isomer, unassigned) [Example 135 D1E1]	> 100	1 to 10	B (B = 25 to 50-fold selective for hTREX1)	1 to 10
COCCn1ncc(C(c2cc(F)ccc2C#N)C(C)c2nc(C(=O)Nc3cnoc3)c(O)c(=O)n2C)c1C (single isomer, unassigned) [Example 104 D1E1]	> 100	1 to 10	B (B = 25 to 50-fold selective for hTREX1)	1 to 10
CC(c1nc(C(=O)Nc2cnoc2)c(O)c(=O)n1C)C(c1ccccc1Cl)n1cc(C(F)(F)F)cn1 (single isomer, unassigned) [Example 139 D1E1]	> 100	1 to 10	A (A = <25 fold selective for hTREX1)	1 to 10
Cc1ncc(C(c2ccccc2Cl)C(C)c2nc(C(=O)Nc3cnoc3)c(O)c(=O)n2C)nc1C (single isomer, unassigned) [Example 125 D2E1]	> 100	1 to 10	A (A = <25 fold selective for hTREX1)	> 10
